{"source": "patent US20230110065A1", "about": "“COMBINATION OF ANETHOLE TRITHIONE OR ITS DERIVATIVE, 4-OH-ANETHOLE TRITHIONE, WITH DOXYCYCLINE OR MINOCYCLINE FOR THE USE THEREOF IN THE TREATMENT OF PARKINSON'S DISEASE” (priority 2020, published 2023)", "key": {"Parkinson's disease": {"test_system": "Parkinson's disease", "assay": "Clinical case: person with Parkinson's disease", "assay_type": "in vivo, human", "protocol": "This therapeutic solution was tested on a person with Parkinson’s disease. A history of events over 3 years (current follow-up) is presented below:\nSymptoms: At the very beginning of 2018, the first manifestations of Parkinson’s appeared: tremors in the left hand, slowing of walking pace, chaotic descent of stairs, tilting of the torso forward accompanied by back pain in the form of muscle contractures, as well as the beginnings of various obvious non-motor disorders (withdrawal, indifference, difficult decision-making, loss of joy in life, depression, etc.), constipation, hyposmia. Initially, ATT was tested as monotherapy.\nTreatment: The problem then arose of deciding which dose to use. The patient was already taking ATT to treat a problem of benign prostatic hypertrophy (cf. patent WO2019/O73173) and used it with the greatest satisfaction at a dose of 3 cp to 25 mg, given in the morning and evening, but the dose turned out to be insufficient for treating Parkinson’s disease. A blood-brain barrier crossing problem was suspected and the decision was taken to increase this dose by 4 times by dividing it into 4 daily doses, i.e., 4 x 6 tablets/day (equivalent to 600 mg/day), so as to reduce concentration fluctuations as much as possible (the plasma half-life of ATT in humans is approximately 3 hrs).\nSymptoms: In April-May 2019, unusual fatigue manifested when the patient performed strenuous tasks.\nTreatment: Faced with worsening fatigue, the decision was taken, on Dec. 19, 2019, to add doxycycline at a dose of 50 mg every 6 hrs, which dose was intended to ensure stable concentrations in the LCR of approximately 0.9 µM/L (Dotevall, 1989; Karlsson, 1996), i.e., around 3 times what Gonzalez-Lizzaraga (2017) recommends."}, "[1]": {"test_system": "dopaminergic neurons in midbrain cultures", "assay": "Survival of dopaminergic (TH+) neurons in midbrain cultures under low-noise, spontaneous oxidative stress", "assay_type": "cell-based, mouse", "conditions": "7 days, FIG. 8", "protocol": "Midbrain cultures and immunodetection of tyrosine hydroxylase (TH): Mouse midbrain cultures were produced based on a protocol initially described by Troadec and colleagues (2001) and subsequently taken up by Rousseau and colleagues (2013). The cultures were generated from Swiss mouse embryos (Janvier LABS, Le Genest-St Isles) taken from the pregnant mother on day 13.5 of gestation. The cells dissociated from the midbrain were cultured in 48-well plates containing 500 µl of DMEM/HamF12 medium, supplemented with 10% fetal bovine serum (Biowest LLC, Les Ulis, France). Approximately 80-100 10^3 cells were added initially to each culture well. After one hour, the initial medium was replaced with the DMEM/HamF12 medium supplemented with 20 µg/mL of insulin. The culture medium (350 µl) and the treatments were renewed on days 1 and 3 in vitro. The cultures were maintained for a total of 7 days before binding and analysis. […] TH^+ neurons were counted according to a protocol described previously (Rousseau et al, 2013). The counts are expressed as % of the values obtained in the control cultures treated with apotransferrin.\nStatistical analysis: The experimental data correspond to mean ± SEM values. […] The data were analyzed with the GraphPad Prism 8.3.1 software or Sigmaplot 12.5 software using One-Way ANOVA, followed by a post-hoc Student Newman Keuls test."}, "[2]": {"conditions": "in humans; cited from earlier work"}, "[3]": {"conditions": "cited from earlier work"}, "[4]": {"test_system": "microglia in culture activated by LPS (TLR4 agonist)", "assay": "TNF-a release (ELISA) in microglia in culture activated by LPS", "assay_type": "cell-based, mouse", "description": "Purification of microglia: The cultures were produced from a cell suspension obtained by mechanical dissociation of the brains of newborn mice, C57BL/6J (Janvier LABS), according to a protocol described by Sepulveda-Diaz and colleagues (Glia, 2016) and modified subsequently by dos-Santos-Pereira and colleagues (Glia, 2020). The protocol used follows the directives of the Council of the European Union (2010/63/EU). It was approved by the Ethics Committee for Animal Experimentation, Charles Darwin no. 5. Corning culture flasks of 75 cm^2 precoated with a polycation, polyethyleneimine (PEI; 1 mg/mL) diluted in a borate buffer pH 8.3, were used so as to obtain spontaneous isolation of the microglial cells after 15-20 days of culture, this isolation taking place at the expense of other cell populations, in particular, astrocytes. In order to maintain the flask cultures, Dulbecco’s modified Eagle’s medium (DMEM) supplemented with 10% fetal bovine serum (FBS, Biowest LLC) and 1% penicillin/streptomycin cocktail was used (see experimental details described in the publication of Sepulveda-Diaz and colleagues). After the microglia purification step, the microglia adhering in the culture flasks were trypsinized to produce subcultures in 48-well multi-well Nunc plates. These cultures were maintained in the presence of DMEM, supplemented with 20 mM HEPES and 1% FBS. […]\n(§1) Assessment of TNF-a levels: The culture medium of the microglia, recovered 24 hrs after the stimulation by the inflammogens was initiated, was then frozen at -20° C. until the analysis. TNF-a was detected with an ELISA kit from ThermoFisher (BMS607-3TWO), following the supplier’s instructions (dos-Santos-Pereira et al, Glia, 2020). The absorbance of each sample was measured at 450 nm with a SpectraMax i3X.\n(§2) Statistical analysis: The experimental data were analyzed with the GraphPad Prism 8.3.1 software by applying a One-Way ANOVA test, followed by a post-hoc Student Newman Keuls test."}, "[5]": {"test_system": "microglia in culture activated by PAM3CSK4 (TLR2 agonist)", "assay": "TNF-a release (ELISA) in microglia in culture activated by PAM3CSK4", "assay_type": "cell-based, mouse", "conditions": "PAM3CSK4 1 µg/mL, 24 hrs; FIG. 4", "description": "Purification of microglia: The cultures were produced from a cell suspension obtained by mechanical dissociation of the brains of newborn mice, C57BL/6J (Janvier LABS), according to a protocol described by Sepulveda-Diaz and colleagues (Glia, 2016) and modified subsequently by dos-Santos-Pereira and colleagues (Glia, 2020). The protocol used follows the directives of the Council of the European Union (2010/63/EU). It was approved by the Ethics Committee for Animal Experimentation, Charles Darwin no. 5. […]\nas §1, §2"}, "a-synuclein [6]": {"target": "T1, a-synuclein (Homo sapiens, UniProt P37840)", "T1 construct": "made in house; host or cells: Escherichia coli (plasmid pT7-7)", "assay": "Amyloid aggregation of a-synuclein by orbital shaking, Thioflavin-T test", "assay_type": "biochemical", "conditions": "ATX 1, 10 or 100 µM, 600 rpm, 37° C., 96 h; FIG. 5B", "protocol": "Preparation of a-synuclein: Human recombinant a-synuclein was produced from a strain of Escherichia coli carrying a plasmid pT7-7 containing the coding sequence of the protein (Kaylor et al, J Mol Biol, 2005; Gonzalez-Lizarraga et al, Sci Rep, 2020). After a purification step, the purity of the protein was evaluated by polyacrylamide gel electrophoresis under denaturing conditions (SDS-PAGE). The stock solution of a-synuclein was prepared in a buffer containing 20 mM of HEPES and 150 mM of NaCl at pH 7.4. Before initiating the aggregation protocol, the protein was centrifuged at 12000 g for 30 minutes in order to eliminate the micro-aggregates. The protein concentration was measured at 280 nm with a Nanodrop 8000 spectrophotometer (Gonzalez-Lizarraga et al, Sci Rep, 2020).\nAggregation of a-synuclein […]: The aggregation protocol was adapted from previous work (Kaylor et al, J Mol Biol, 2005; Gonzalez-Lizarraga et al, Sci Rep, 2020). Briefly, the aggregation of a-synuclein was obtained by orbital shaking (600 rpm; Thermomixer Comfort; Eppendorf), at 37° C. for 96 h, of the recombinant protein (70 µM) solubilized in 20 mM of HEPES and 150 mM of NaCl, pH 7.4. Dimethylformamide (DMF) was used to dilute ATX in this experimental protocol. The formation of aggregated structures was monitored by means of the Thioflavin-T (ThT) test (LeVine et al, Meth Enzymol, 1999)."}, "a-synuclein [7]": {"target": "T1, a-synuclein", "assay": "Transmission electron microscopy of a-synuclein aggregates", "assay_type": "biochemical", "conditions": "ATX 10 µM", "protocol": "Transmission electron microscopy: The a-synuclein samples, shaken in the optional presence of the treatments of interest, were characterized by transmission electron microscopy. Aliquots of 50 µl of each solution were used for this analysis. The sample preparation protocol is described in detail by Gonzalez-Lizarraga and colleagues (2020). Images were obtained with a transmission electron microscope, Philips EM 301."}, "[8]": {"conditions": "doxycycline 50 mg every 6 hrs; intended, from Dotevall, 1989; Karlsson, 1996; cited from earlier work"}}, "note": "“Also recorded” adds a separate entry of the source.", "data": [{"smiles": "COc1ccc(-c2cc(=S)ss2)cc1", "note": "[ATT, anethole trithione]", "values": [{"measurement": "Duration of satisfactory treatment", "setting": "Parkinson's disease; ATT 150 mg, 4 times a day", "result": 13, "unit": "months"}, {"measurement": "Duration of failure with the onset of new symptoms", "setting": "Parkinson's disease; ATT 150 mg, 4 times a day, after the satisfactory period", "result": 7, "unit": "months"}, {"measurement": "Side effects", "setting": "Parkinson's disease; two years of treatment", "result": "no significant side effects have been noted during these two years of treatment, apart from intestinal meteorism"}, {"measurement": "Protection as % of that of APO (apotransferrin)", "setting": "[1]; 0.75 µM", "result": 0.6, "unit": "%"}, {"measurement": "Plasma half-life", "setting": "[2]", "result": "approximately 3 hrs"}, {"measurement": "Metabolization of ATT", "setting": "[3]; He 2011, Li TM 2007, Li WY 2008", "result": "metabolizes almost immediately and completely into ATX via O-demethylation"}, {"measurement": "ATT found in the patient's urine", "setting": "[3]; over a 24-hour period", "result": "almost no ATT can be found"}]}, {"smiles": "Oc1ccc(-c2cc(=S)ss2)cc1", "note": "[ATX, 4-hydroxy-anethole trithione]", "values": [{"measurement": "Release of TNF-a (inflammation marker), result in words", "setting": "[4]; LPS 10 ng/mL, 24 hrs, FIG. 3", "result": "capable of inhibiting the release of TNF-a"}, {"measurement": "Release of TNF-a (inflammation marker), result in words", "setting": "[5]", "result": "capable of inhibiting the release of TNF-a"}, {"measurement": "Inhibition of a-synuclein aggregation (ThT fluorescence), result in words", "setting": "a-synuclein [6]", "result": "effective, even at a low concentration; also recorded: effectively and concentration-dependently inhibiting the aggregation"}, {"measurement": "Amyloid aggregation of a-synuclein seen by TEM", "setting": "a-synuclein [7]", "result": "effectively reduces the amyloid aggregation of a-synuclein"}]}, {"smiles": "C[C@H]1c2cccc(O)c2C(=O)C2=C(O)[C@]3(O)C(=O)C(C(N)=O)=C(O)[C@@H](N(C)C)[C@@H]3[C@@H](O)[C@@H]21", "note": "[DOX, doxycycline]", "values": [{"measurement": "inhibition at 50 µM", "setting": "[4]; Mus musculus, Microglia, LPS model, 50 µM of DOX, read-out: Inhibition of the release of TNFa", "result": 50, "unit": "%"}, {"measurement": "inhibition at 100 µM", "setting": "[4]; Mus musculus, Microglia, LPS model, 100 µM of DOX, read-out: Inhibition of the release of TNFa", "result": "~70", "unit": "%"}, {"measurement": "Protective effect as % of that of apotransferrin", "setting": "[1]; DOX 7.5 µM", "result": 27, "unit": "%"}, {"measurement": "Stable concentrations in the LCR", "setting": "[8]", "result": "approximately 0.9 µM/L"}]}, {"smiles": "N[C@@H](Cc1ccc(O)c(O)c1)C(=O)O", "note": "[L-DOPA]", "values": [{"measurement": "Effect of introducing SINEMET (L-DOPA) on symptoms", "setting": "Parkinson's disease; July 2019, patient on ATT 600 mg/day", "result": "solved the problem of loss of balance but the hand tremors only slightly improved and fatigue persisted"}]}]}
